Data reported in article PMC3038857, “Using Nuclear Receptor Activity to Stratify Hepatocarcinogens” (PLoS ONE, 2011).

How the values were obtained:
[1] = system: Rat Liver; settings: rat chronic study, liver, any lesion; coded 6 / 0, code not explained here; ref ToxRefDB; cited from earlier work
[2] = system: Rat Liver; settings: rat chronic study, liver, neoplastic lesion; coded 6 / 0, code not explained here; ref ToxRefDB; cited from earlier work
[3] = biological target: T1, PXR Human (NR1I2) (Homo sapiens, UniProt O75469); experiment: NCGC_PXR_Agonist_human: GAL4 BLAM Reporter gene assay: PXR Human; type: cell-based; settings: agonist mode; scale not given, looks like -log10 of molar active concentration; 0 = no activity
T1 sequence (O75469 146-434 limits assumed): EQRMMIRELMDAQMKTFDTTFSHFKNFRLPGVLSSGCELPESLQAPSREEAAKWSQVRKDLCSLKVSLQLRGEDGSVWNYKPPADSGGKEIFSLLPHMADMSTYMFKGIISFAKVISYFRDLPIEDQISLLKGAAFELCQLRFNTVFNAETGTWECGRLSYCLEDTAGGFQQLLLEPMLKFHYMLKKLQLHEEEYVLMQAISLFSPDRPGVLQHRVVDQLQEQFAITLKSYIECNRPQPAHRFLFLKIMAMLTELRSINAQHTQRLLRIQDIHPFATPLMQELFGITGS
How it was run: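 Cell-based GAL4 beta-lactamase reporter assays run at NIH Chemical Genomics Center as part of Tox21. Curve fits required R^2 ≥0.5; values where only the highest concentration exceeded 50% activity were excluded.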

[4] = biological target: T2, RXRB (retinoid X receptor, beta) (Homo sapiens, UniProt P28702); experiment: ATG_RXRb_TRANS: Factorial reporter gene assay (HepG2); type: cell-based; settings: HepG2; scale not given, looks like -log10 of molar active concentration; 0 = no activity
T2 construct: expressed in transfected cells; host or cells: HepG2
T2 sequence (P28702 1-533): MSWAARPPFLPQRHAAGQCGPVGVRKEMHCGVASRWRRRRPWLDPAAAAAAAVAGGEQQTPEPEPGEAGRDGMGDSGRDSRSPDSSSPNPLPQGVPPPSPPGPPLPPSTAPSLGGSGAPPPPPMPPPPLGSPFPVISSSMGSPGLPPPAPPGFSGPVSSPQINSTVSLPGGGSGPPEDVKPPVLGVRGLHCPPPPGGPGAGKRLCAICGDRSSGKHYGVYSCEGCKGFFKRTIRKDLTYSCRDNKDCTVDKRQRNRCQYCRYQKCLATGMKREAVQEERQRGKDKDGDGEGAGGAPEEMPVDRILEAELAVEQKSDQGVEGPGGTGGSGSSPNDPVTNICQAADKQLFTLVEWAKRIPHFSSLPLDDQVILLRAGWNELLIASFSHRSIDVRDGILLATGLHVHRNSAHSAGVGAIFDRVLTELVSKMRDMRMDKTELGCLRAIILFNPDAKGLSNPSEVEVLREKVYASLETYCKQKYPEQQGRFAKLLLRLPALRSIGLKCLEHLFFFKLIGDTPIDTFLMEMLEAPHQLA
Procedure: (§1) A multiple reporter transcription unit (MRTU) library consisting of 48 transcription factor binding sites was transfected into the HepG2 human liver hepatoma cell line. In addition to the cis-acting reporter genes (CIS), a modification of the approach was used to generate a trans-system (TRANS) with a mammalian one-hybrid assay consisting of an additional 25 MRTU library reporting the activity of nuclear receptor super-family members. […] These assays were performed by Attagene Inc. (Morrisville NC) under contract to EPA.
(§2) In addition to the cis-acting reporter genes (CIS), a modification of the approach was used to generate a trans-system (TRANS) with a mammalian one-hybrid assay consisting of an additional 25 MRTU library reporting the activity of nuclear receptor super-family members. […] Chemicals were then tested in the CIS and TRANS assays at seven concentrations starting at the MTC and followed by three-fold serial dilutions. These assays were performed by Attagene Inc. (Morrisville NC) under contract to EPA. Detailed description of the methods, data and analysis methods for this dataset will be presented in a separate publication.

[5] = biological target: T3, PXR (NR1I2) (Homo sapiens, UniProt O75469); experiment: ATG_PXR_TRANS: Factorial reporter gene assay (HepG2); type: cell-based; set-up: endogenous in cells; host or cells: HepG2; settings: HepG2; scale not given, looks like -log10 of molar active concentration; 0 = no activity
T3 sequence (O75469 1-434): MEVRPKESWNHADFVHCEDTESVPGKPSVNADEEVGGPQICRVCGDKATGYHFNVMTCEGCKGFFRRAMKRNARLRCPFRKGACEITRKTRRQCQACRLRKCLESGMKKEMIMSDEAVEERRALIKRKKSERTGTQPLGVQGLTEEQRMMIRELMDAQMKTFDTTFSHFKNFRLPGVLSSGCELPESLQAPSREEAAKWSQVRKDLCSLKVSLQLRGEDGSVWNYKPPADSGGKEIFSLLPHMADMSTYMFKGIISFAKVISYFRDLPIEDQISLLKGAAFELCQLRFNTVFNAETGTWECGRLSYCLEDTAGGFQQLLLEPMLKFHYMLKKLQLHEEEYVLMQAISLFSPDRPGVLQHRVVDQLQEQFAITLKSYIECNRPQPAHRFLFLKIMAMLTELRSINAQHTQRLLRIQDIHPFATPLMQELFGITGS
How it was run: (§3)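 HepG2 cells transfected with multiplexed reporter libraries: cis-acting binding-site reporters (CIS) and a one-hybrid nuclear-receptor trans system (TRANS). Chemicals tested at seven concentrations, starting at the maximum tolerated concentration with three-fold serial dilutions.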

[6] = biological target: T4, LXRb (NR1H2) (Homo sapiens, UniProt P55055); experiment: ATG_LXRb_TRANS: Factorial reporter gene assay (HepG2); type: cell-based; settings: HepG2; scale not given, looks like -log10 of molar active concentration; 0 = no activity
T4 construct: expressed in transfected cells; host or cells: HepG2
T4 sequence (P55055 1-460): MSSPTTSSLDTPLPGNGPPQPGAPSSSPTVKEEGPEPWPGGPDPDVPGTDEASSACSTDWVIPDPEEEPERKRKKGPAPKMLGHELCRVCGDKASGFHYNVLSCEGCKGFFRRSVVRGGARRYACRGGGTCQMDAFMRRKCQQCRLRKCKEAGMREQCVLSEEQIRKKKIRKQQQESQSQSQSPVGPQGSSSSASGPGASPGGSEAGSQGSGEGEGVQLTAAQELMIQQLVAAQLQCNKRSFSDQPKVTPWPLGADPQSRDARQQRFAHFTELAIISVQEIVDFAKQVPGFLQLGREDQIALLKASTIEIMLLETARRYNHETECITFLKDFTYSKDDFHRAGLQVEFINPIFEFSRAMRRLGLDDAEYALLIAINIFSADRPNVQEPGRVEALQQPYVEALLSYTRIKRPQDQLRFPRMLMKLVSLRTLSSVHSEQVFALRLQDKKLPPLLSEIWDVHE
How it was run: as §3

[7] = system: LXR (NR1H3); experiment: ATG_DR4_LXR_CIS: Factorial reporter gene assay (HepG2); type: cell-based, human; set-up: scale not given here; settings: scale not given, looks like -log10 of molar active concentration, 0 = no activity
Procedure: as §1, §2

OB(O)O [r41]
CHR_Rat_Liver_1_AnyLesion [1]: 0 | CHR_Rat_Liver_3_NeoplasticLesion [2]: 0 | NCGC_PXR_Agonist_human [3]: 0 | ATG_RXRb_TRANS [4]: 0 | ATG_PXR_TRANS [5]: 0 | ATG_LXRb_TRANS [6]: 0 | ATG_DR4_LXR_CIS [7]: 0

O=C(Nc1ccccc1-c1ccc(Cl)cc1)c1cccnc1Cl [r42]
CHR_Rat_Liver_1_AnyLesion [1]: 6 | CHR_Rat_Liver_3_NeoplasticLesion [2]: 0 | NCGC_PXR_Agonist_human [3]: 0 | ATG_RXRb_TRANS [4]: 0 | ATG_PXR_TRANS [5]: 0 | ATG_LXRb_TRANS [6]: 0 | ATG_DR4_LXR_CIS [7]: 0

CCC(C)n1c(=O)[nH]c(C)c(Br)c1=O (stereo not drawn) [r43]
CHR_Rat_Liver_1_AnyLesion [1]: 0 | CHR_Rat_Liver_3_NeoplasticLesion [2]: 0 | NCGC_PXR_Agonist_human [3]: 0 | ATG_RXRb_TRANS [4]: 0 | ATG_PXR_TRANS [5]: 0 | ATG_LXRb_TRANS [6]: 0 | ATG_DR4_LXR_CIS [7]: 0

N#Cc1cc(Br)c(O)c(Br)c1 [r44]
CHR_Rat_Liver_1_AnyLesion [1]: 6 | CHR_Rat_Liver_3_NeoplasticLesion [2]: 0 | NCGC_PXR_Agonist_human [3]: 0 | ATG_RXRb_TRANS [4]: 0 | ATG_PXR_TRANS [5]: 0 | ATG_LXRb_TRANS [6]: 0 | ATG_DR4_LXR_CIS [7]: 0

CC(C)N1C(=O)N(c2ccccc2)CS/C1=N\C(C)(C)C [r45]
CHR_Rat_Liver_1_AnyLesion [1]: 6 | CHR_Rat_Liver_3_NeoplasticLesion [2]: 0 | NCGC_PXR_Agonist_human [3]: 4.937 | ATG_RXRb_TRANS [4]: 0 | ATG_PXR_TRANS [5]: 5.42 | ATG_LXRb_TRANS [6]: 0 | ATG_DR4_LXR_CIS [7]: 0

CCCCOCN(C(=O)CCl)c1c(CC)cccc1CC [r46]
CHR_Rat_Liver_1_AnyLesion [1]: 6 | CHR_Rat_Liver_3_NeoplasticLesion [2]: 0 | NCGC_PXR_Agonist_human [3]: 5.71 | ATG_RXRb_TRANS [4]: 0 | ATG_PXR_TRANS [5]: 5.959 | ATG_LXRb_TRANS [6]: 0 | ATG_DR4_LXR_CIS [7]: 0

C=CCOC(=O)C(C)(C)OC(=O)c1cc(-n2c(=O)cc(C(F)(F)F)n(C)c2=O)ccc1Cl [r47]
CHR_Rat_Liver_1_AnyLesion [1]: 6 | CHR_Rat_Liver_3_NeoplasticLesion [2]: 0 | NCGC_PXR_Agonist_human [3]: 0 | ATG_RXRb_TRANS [4]: 0 | ATG_PXR_TRANS [5]: 0 | ATG_LXRb_TRANS [6]: 0 | ATG_DR4_LXR_CIS [7]: 0

CCSC(=O)N(CC(C)C)CC(C)C [r49]
CHR_Rat_Liver_1_AnyLesion [1]: 6 | CHR_Rat_Liver_3_NeoplasticLesion [2]: 0 | NCGC_PXR_Agonist_human [3]: 0 | ATG_RXRb_TRANS [4]: 0 | ATG_PXR_TRANS [5]: 0 | ATG_LXRb_TRANS [6]: 0 | ATG_DR4_LXR_CIS [7]: 0

CNC(=O)Oc1cccc2ccccc12 [r52]
CHR_Rat_Liver_1_AnyLesion [1]: 6 | CHR_Rat_Liver_3_NeoplasticLesion [2]: 6 | NCGC_PXR_Agonist_human [3]: 0 | ATG_RXRb_TRANS [4]: 0 | ATG_PXR_TRANS [5]: 0 | ATG_LXRb_TRANS [6]: 0 | ATG_DR4_LXR_CIS [7]: 0

CC1=C(C(=O)Nc2ccccc2)SCCO1 [r53]
CHR_Rat_Liver_1_AnyLesion [1]: 0 | CHR_Rat_Liver_3_NeoplasticLesion [2]: 0 | NCGC_PXR_Agonist_human [3]: 0 | ATG_RXRb_TRANS [4]: 0 | ATG_PXR_TRANS [5]: 0 | ATG_LXRb_TRANS [6]: 0 | ATG_DR4_LXR_CIS [7]: 0

CCOC(=O)C(Cl)Cc1cc(-n2nc(C)n(C(F)F)c2=O)c(F)cc1Cl (stereo not drawn) [r54]
CHR_Rat_Liver_1_AnyLesion [1]: 6 | CHR_Rat_Liver_3_NeoplasticLesion [2]: 0 | NCGC_PXR_Agonist_human [3]: 0 | ATG_RXRb_TRANS [4]: 0 | ATG_PXR_TRANS [5]: 4.367 | ATG_LXRb_TRANS [6]: 0 | ATG_DR4_LXR_CIS [7]: 0

Nc1cnn(-c2ccccc2)c(=O)c1Cl [r56]
CHR_Rat_Liver_1_AnyLesion [1]: 0 | CHR_Rat_Liver_3_NeoplasticLesion [2]: 0 | NCGC_PXR_Agonist_human [3]: 0 | ATG_RXRb_TRANS [4]: 0 | ATG_PXR_TRANS [5]: 0 | ATG_LXRb_TRANS [6]: 0 | ATG_DR4_LXR_CIS [7]: 0

CC(C)OC(=O)Nc1cccc(Cl)c1 [r59]
CHR_Rat_Liver_1_AnyLesion [1]: 6 | CHR_Rat_Liver_3_NeoplasticLesion [2]: 0 | NCGC_PXR_Agonist_human [3]: 0 | ATG_RXRb_TRANS [4]: 0 | ATG_PXR_TRANS [5]: 4.347 | ATG_LXRb_TRANS [6]: 0 | ATG_DR4_LXR_CIS [7]: 0

COc1nc(C)nc(NC(=O)NS(=O)(=O)c2ccccc2Cl)n1 [r62]
CHR_Rat_Liver_1_AnyLesion [1]: 6 | CHR_Rat_Liver_3_NeoplasticLesion [2]: 0 | NCGC_PXR_Agonist_human [3]: 0 | ATG_RXRb_TRANS [4]: 0 | ATG_PXR_TRANS [5]: 0 | ATG_LXRb_TRANS [6]: 0 | ATG_DR4_LXR_CIS [7]: 0

COc1nc(C)nc(NC(=O)NS(=O)(=O)c2ccccc2Cl)n1 [r63]
CHR_Rat_Liver_1_AnyLesion [1]: 6 | CHR_Rat_Liver_3_NeoplasticLesion [2]: 0 | NCGC_PXR_Agonist_human [3]: 0 | ATG_RXRb_TRANS [4]: 0 | ATG_PXR_TRANS [5]: 0 | ATG_LXRb_TRANS [6]: 0 | ATG_DR4_LXR_CIS [7]: 0
